Values of other authors, collected in patent publication US20020042375A1, “Method of treating cancer” (priority 2000, published 2002).

Legend:
prostate cancer cell = settings: in vitro
[1] = system: LNCaP prostate cancer cells
[2] = system: PC-3 prostate cancer cells; settings: PC-3 cells
LNCaP cells = settings: exogenous administration

Row | SMILES | prostate cancer cell apoptosis (prostate cancer cell) | other results
1 | CC(C(=O)O)c1ccc(-c2ccccc2)c(F)c1 (centres unmarked) [flurbiprofen] | induce prostate cancer cell apoptosis | PC-3 growth (PC-3 cells; in the dimethylprostaglandin E2 model): inhibited PC-3 growth
2 | CC(C(=O)O)c1cccc(C(=O)c2ccccc2)c1 (centres unmarked) [ketoprofen] | induce prostate cancer cell apoptosis | –
3 | CC(=O)Oc1ccccc1C(=O)O [aspirin] | induce prostate cancer cell apoptosis | –
4 | CN1C(C(=O)Nc2ccccn2)=C(O)c2ccccc2S1(=O)=O [piroxicam] | induce prostate cancer cell apoptosis | –
5 | CS(=O)(=O)Nc1ccc([N+](=O)[O-])cc1OC1CCCCC1 [NS398] | induce prostate cancer cell apoptosis | apoptosis [1]: induce apoptosis; apoptosis [2]: induce apoptosis
6 | CCCCC(C)(C)[C@H](O)/C=C/[C@H]1[C@H](O)CC(=O)[C@@H]1C/C=C\CCCC(=O)O [dimethylprostaglandin E2] | – | proliferation in vitro (PC-3 cells; exogenous administration, PC-3 cells): increased proliferation; proliferation in vitro (LNCaP cells): increased proliferation
7 | COc1ccc2c(c1)c(CC(=O)O)c(C)n2C(=O)c1ccc(Cl)cc1 [indomethacin] | induce prostate cancer cell apoptosis | –
